# Results reported in patent US20030191088A1, “Novel therapeutic agents interfering in neutrophil migration” (priority 1998, published 2003).
# Legend:
# [1] = purified form; cited from earlier work
# [2] = system: neutrophil migration (chemotaxis) towards IL-8; conditions: in vitro, GXM added directly to the leukocytes; cited from earlier work
# neutrophils = conditions: cited from earlier work
# healthy rabbits = assay: Animal toxicity of intravenous GXM in healthy rabbits; assay type: in vivo; conditions: intravenous administration, doses ranging from 0.5 to 50 mg
# From the text: In experiments, it was investigated whether GXM is toxic in healthy animals.
# neutrophil L-selectin = conditions: cited from earlier work
# pneumococcal meningitis = pneumococcal meningitis model in rabbits, intravenous GXM; assay type: in vivo
# [3] = target: CD18 (β subunit of LFA-1) (Homo sapiens, UniProt P05107); conditions: cited from earlier work
# [4] = pneumococcal meningitis rabbit model, i.v. administration
# [5] = rabbits, intravenous administration, in comparison to control rabbits
# Chain of CD18 (β subunit of LFA-1) (P05107 23-769): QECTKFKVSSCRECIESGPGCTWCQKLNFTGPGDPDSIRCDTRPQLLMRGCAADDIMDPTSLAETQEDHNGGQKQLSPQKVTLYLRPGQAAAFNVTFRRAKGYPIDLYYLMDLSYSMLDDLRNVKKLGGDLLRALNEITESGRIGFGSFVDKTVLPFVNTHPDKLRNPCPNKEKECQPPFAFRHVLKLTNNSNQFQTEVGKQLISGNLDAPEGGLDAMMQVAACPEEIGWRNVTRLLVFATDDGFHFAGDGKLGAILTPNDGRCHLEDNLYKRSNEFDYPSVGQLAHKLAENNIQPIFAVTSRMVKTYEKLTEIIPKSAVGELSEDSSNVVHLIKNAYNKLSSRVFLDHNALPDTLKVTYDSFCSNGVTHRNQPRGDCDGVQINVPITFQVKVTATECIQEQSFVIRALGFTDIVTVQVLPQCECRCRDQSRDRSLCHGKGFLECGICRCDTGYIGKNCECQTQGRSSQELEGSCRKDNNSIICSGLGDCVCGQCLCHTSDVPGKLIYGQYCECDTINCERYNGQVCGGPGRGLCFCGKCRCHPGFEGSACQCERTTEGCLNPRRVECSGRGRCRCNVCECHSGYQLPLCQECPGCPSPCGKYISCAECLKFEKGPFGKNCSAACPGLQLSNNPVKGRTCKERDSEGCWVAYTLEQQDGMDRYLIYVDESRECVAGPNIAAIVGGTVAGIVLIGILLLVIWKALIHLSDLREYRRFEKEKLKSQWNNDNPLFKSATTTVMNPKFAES
substance,measurement,setting,value
glucuronoxylomannan [GXM],immunogenicity,[1],poorly immunogenic
same,interference with neutrophil migration (chemotaxis) towards IL-8,[2],interferes with neutrophil migration (chemotaxis) towards IL-8
same,attraction of neutrophils,neutrophils,attract neutrophils itself
same,tolerability in healthy rabbits,healthy rabbits,tolerated
same,shedding of neutrophil L-selectin,neutrophil L-selectin,can induce shedding of neutrophil L-selectin
same,toxicity and tolerability in the pneumococcal meningitis rabbit model,pneumococcal meningitis; i.v. administration,non-toxic and well tolerated
same,GXM in CSF,pneumococcal meningitis; [4],detectable
same,brain toxicity,pneumococcal meningitis; [4],No demonstrable brain toxicity
same,TNF-α levels in the CSF,pneumococcal meningitis; [5],reduces TNF-α levels in the CSF
same,entry of leukocytes (PMN) into the CSF and brain,pneumococcal meningitis; [5],delays entry of leukocytes (PMN) into the CSF and brain
same,protection of the brain against damage,pneumococcal meningitis; [5],protects the brains of these rabbits against damage
same,binding to CD18,[3],can bind to CD18
